Laboratory results: ChEMBL document CHEMBL1201861, “Genomics of Drug Sensitity in Cancer screening data, Wellcome Trust Sanger Institute”
Values joined by “and” are separate entries in the source; they are usually repeats but may differ in a detail not shown here. Equal entries are not always repeated.

How the values were obtained:
Assay in all cases: cells
SNU-387 = type: functional, cell-based, Homo sapiens
Description: SANGER: Inhibition of human SNU-387 cell growth in a cell viability assay.

GB-1 = type: functional, cell-based, Homo sapiens
Description: SANGER: Inhibition of human GB-1 cell growth in a cell viability assay.

EFO-27 = type: functional, cell-based, Homo sapiens
Description: SANGER: Inhibition of human EFO-27 cell growth in a cell viability assay.

EFO-21 = type: functional, cell-based, Homo sapiens
Description: SANGER: Inhibition of human EFO-21 cell growth in a cell viability assay.

D-336MG = type: functional, cell-based, Homo sapiens
Description: SANGER: Inhibition of human D-336MG cell growth in a cell viability assay.

NB12 = type: functional, cell-based, Homo sapiens
Description: SANGER: Inhibition of human NB12 cell growth in a cell viability assay.

NB14 = type: functional, cell-based; details: Homo sapiens
Description: SANGER: Inhibition of human NB14 cell growth in a cell viability assay.

HLE = type: functional, cell-based, Homo sapiens
Description: SANGER: Inhibition of human HLE cell growth in a cell viability assay.

NCI-H1581 = type: functional, cell-based, Homo sapiens
Description: SANGER: Inhibition of human NCI-H1581 cell growth in a cell viability assay.

HCC1187 = type: functional, cell-based, Homo sapiens
Description: SANGER: Inhibition of human HCC1187 cell growth in a cell viability assay.

NCI-H1838 = type: functional, cell-based, Homo sapiens
Description: SANGER: Inhibition of human NCI-H1838 cell growth in a cell viability assay.

TGBC1TKB = type: functional, cell-based, Homo sapiens
Description: SANGER: Inhibition of human TGBC1TKB cell growth in a cell viability assay.

AN3-CA = type: functional, cell-based; details: Homo sapiens
Description: SANGER: Inhibition of human AN3-CA cell growth in a cell viability assay.

NCI-H226 = type: functional, cell-based, Homo sapiens
Description: SANGER: Inhibition of human NCI-H226 cell growth in a cell viability assay.

YKG-1 = type: functional, cell-based, Homo sapiens
Description: SANGER: Inhibition of human YKG-1 cell growth in a cell viability assay.

MeWo = type: functional, cell-based, Homo sapiens
Description: SANGER: Inhibition of human Mewo cell growth in a cell viability assay.

OCI-AML2 = type: functional, cell-based; details: Homo sapiens
Description: SANGER: Inhibition of human OCI-AML2 cell growth in a cell viability assay.

NCI-H1299 = type: functional, cell-based, Homo sapiens
Description: SANGER: Inhibition of human NCI-H1299 cell growth in a cell viability assay.

Calu-6 = type: functional, cell-based, Homo sapiens
Description: SANGER: Inhibition of human Calu-6 cell growth in a cell viability assay.

NCI-H1437 = type: functional, cell-based, Homo sapiens
Description: SANGER: Inhibition of human NCI-H1437 cell growth in a cell viability assay.

OAW-42 = type: functional, cell-based, Homo sapiens
Description: SANGER: Inhibition of human OAW-42 cell growth in a cell viability assay.

P30-OHK = type: functional, cell-based; details: Homo sapiens
Description: SANGER: Inhibition of human P30-OHK cell growth in a cell viability assay.

KNS-81-FD = type: functional, cell-based, Homo sapiens
Description: SANGER: Inhibition of human KNS-81-FD cell growth in a cell viability assay.

EW-16 = type: functional, cell-based, Homo sapiens
Description: SANGER: Inhibition of human EW-16 cell growth in a cell viability assay.

MDA-MB-157 = type: functional, cell-based, Homo sapiens
Description: SANGER: Inhibition of human MDA-MB-157 cell growth in a cell viability assay.

ETK-1 = type: functional, cell-based, Homo sapiens
Description: SANGER: Inhibition of human ETK-1 cell growth in a cell viability assay.

RXF 393 = type: functional, cell-based; details: Homo sapiens
Description: SANGER: Inhibition of human RXF393 cell growth in a cell viability assay.

SJSA-1 = type: functional, cell-based, Homo sapiens
Description: SANGER: Inhibition of human SJSA-1 cell growth in a cell viability assay.

SNB-75 = type: functional, cell-based, Homo sapiens
Description: SANGER: Inhibition of human SNB75 cell growth in a cell viability assay.

SNU-5 = type: functional, cell-based; details: Homo sapiens
Description: SANGER: Inhibition of human NCI-SNU-5 cell growth in a cell viability assay.

LU-99A = type: functional, cell-based, Homo sapiens
Description: SANGER: Inhibition of human LU-99A cell growth in a cell viability assay.

CHP-212 = type: functional, cell-based, Homo sapiens
Description: SANGER: Inhibition of human CHP-212 cell growth in a cell viability assay.

MC116 = type: functional, cell-based; details: Homo sapiens
Description: SANGER: Inhibition of human MC116 cell growth in a cell viability assay.

KYSE-510 = type: functional, cell-based, Homo sapiens
Description: SANGER: Inhibition of human KYSE-510 cell growth in a cell viability assay.

BFTC-909 = type: functional, cell-based, Homo sapiens
Description: SANGER: Inhibition of human BFTC-909 cell growth in a cell viability assay.

MKN-1 = type: functional, cell-based, Homo sapiens
Description: SANGER: Inhibition of human MKN1 cell growth in a cell viability assay.

KYSE-70 cell line = type: functional, cell-based, Homo sapiens
Description: SANGER: Inhibition of human KYSE-70 cell growth in a cell viability assay.

IGROV-1 = type: functional, cell-based, Homo sapiens
Description: SANGER: Inhibition of human IGROV-1 cell growth in a cell viability assay.

no-10 = type: functional, cell-based, Homo sapiens
Description: SANGER: Inhibition of human no-10 cell growth in a cell viability assay.

BT-474 = type: functional, cell-based, Homo sapiens
Description: SANGER: Inhibition of human BT-474 cell growth in a cell viability assay.

U2OS = type: functional, cell-based, Homo sapiens, U-2-OS
Description: SANGER: Inhibition of human U-2-OS cell growth in a cell viability assay.

SHP77 = type: functional, cell-based, Homo sapiens, SHP-77
Description: SANGER: Inhibition of human SHP-77 cell growth in a cell viability assay.

MEL-HO = type: functional, cell-based, Homo sapiens
Description: SANGER: Inhibition of human MEL-HO cell growth in a cell viability assay.

LB771-HNC = type: functional, cell-based, Homo sapiens
Description: SANGER: Inhibition of human LB771-HNC cell growth in a cell viability assay.

OVCAR-3 = type: functional, cell-based, Homo sapiens
Description: SANGER: Inhibition of human OVCAR-3 cell growth in a cell viability assay.

Ramos-2G6-4C10 = type: functional, cell-based; details: Homo sapiens
Description: SANGER: Inhibition of human Ramos-2G6-4C10 cell growth in a cell viability assay.

KGN = type: functional, cell-based, Homo sapiens
Description: SANGER: Inhibition of human KGN cell growth in a cell viability assay.

C32 = type: functional, cell-based, Homo sapiens
Description: SANGER: Inhibition of human C32 cell growth in a cell viability assay.

SW948 = type: functional, cell-based, Homo sapiens
Description: SANGER: Inhibition of human SW948 cell growth in a cell viability assay.

DB = type: functional, cell-based; details: Homo sapiens
Description: SANGER: Inhibition of human DB cell growth in a cell viability assay.

ACN = type: functional, cell-based, Homo sapiens
Description: SANGER: Inhibition of human ACN cell growth in a cell viability assay.

## Nc1ccn([C@@H]2O[C@H](CO)[C@@H](O)[C@@H]2O)c(=O)n1 [CYTARABINE]
SNU-387; Homo sapiens, SNU-387
  IC50: 0.289 µM
GB-1; Homo sapiens, GB-1
  IC50: > 2 µM
EFO-27; Homo sapiens, EFO-27
  IC50: 1.94 µM
EFO-21; Homo sapiens, EFO-21
  IC50: 1.55 µM
D-336MG; Homo sapiens, D-336MG
  IC50: 0.805 µM
NB12; Homo sapiens, NB12
  IC50: > 2 µM
NB14
  IC50: 0.31 µM
HLE; Homo sapiens, HLE
  IC50: 1.59 µM
NCI-H1581; Homo sapiens, NCI-H1581
  IC50: 1.77 µM
HCC1187; Homo sapiens, HCC1187
  IC50: > 2 µM
NCI-H1838; Homo sapiens, NCI-H1838
  IC50: > 2 µM
TGBC1TKB; Homo sapiens, TGBC1TKB
  IC50: > 2 µM
AN3-CA
  IC50: 1.84 µM
NCI-H226; Homo sapiens, NCI-H226
  IC50: > 2 µM
YKG-1; Homo sapiens, YKG-1
  IC50: 0.298 µM
MeWo; Homo sapiens, MeWo
  IC50: 1.24 µM
OCI-AML2
  IC50: 0.545 µM
NCI-H1299; Homo sapiens, NCI-H1299
  IC50: 0.672 µM
Calu-6; Homo sapiens, Calu-6
  IC50: > 2 µM
NCI-H1437; Homo sapiens, NCI-H1437
  IC50: 0.798 µM
OAW-42; Homo sapiens, OAW-42
  IC50: 1.25 µM
P30-OHK
  IC50: 0.0565 µM
KNS-81-FD; Homo sapiens, KNS-81-FD
  IC50: > 2 µM
EW-16; Homo sapiens, EW-16
  IC50: 0.266 µM
MDA-MB-157; Homo sapiens, MDA-MB-157
  IC50: 1.39 µM
ETK-1; Homo sapiens, ETK-1
  IC50: > 2 µM
RXF 393
  IC50: 0.7 µM
SJSA-1; Homo sapiens, SJSA-1
  IC50: 0.235 µM
SNB-75; Homo sapiens, SNB-75
  IC50: > 2 µM
SNU-5
  IC50: > 2 µM
LU-99A; Homo sapiens, LU-99A
  IC50: 0.266 µM
CHP-212; Homo sapiens, CHP-212
  IC50: 0.0335 µM
MC116
  IC50: 1.28 µM
KYSE-510; Homo sapiens, KYSE-510
  IC50: 0.306 µM
BFTC-909; Homo sapiens, BFTC-909
  IC50: 0.357 µM
MKN-1; Homo sapiens, MKN-1
  IC50: 1.74 µM
KYSE-70 cell line; Homo sapiens, KYSE-70
  IC50: 1.86 µM
IGROV-1; Homo sapiens, IGROV-1
  IC50: 1.79 µM
no-10; Homo sapiens
  IC50: > 2 µM
BT-474; Homo sapiens, BT-474
  IC50: > 2 µM
U2OS; Homo sapiens, U2OS
  IC50: 0.344 µM
SHP77; Homo sapiens, SHP77
  IC50: > 2 µM
MEL-HO; Homo sapiens, MEL-HO
  IC50: > 2 µM
LB771-HNC; Homo sapiens, LB771-HNC
  IC50: > 2 µM
OVCAR-3; Homo sapiens, OVCAR-3
  IC50: > 2 µM
Ramos-2G6-4C10
  IC50: 0.868 µM
KGN; Homo sapiens, KGN
  IC50: > 2 µM
C32; Homo sapiens, C32
  IC50: > 2 µM
SW948; Homo sapiens, SW948
  IC50: > 2 µM
DB
  IC50: 0.246 µM
ACN; Homo sapiens, ACN
  IC50: > 2 µM

## Cc1cc([C@@H](C)Nc2ccccc2C(=O)O)c2nc(N3CCOCC3)cc(=O)n2c1 [AZD-6482]
SNU-387; snu-387
  IC50: > 5.12 µM
GB-1; gb-1
  IC50: > 5.12 µM
EFO-27; Homo sapiens, EFO-27
  IC50: > 5.12 µM
EFO-27; efo-27
  IC50: > 5.12 µM
EFO-21; efo-21
  IC50: 5.04 µM and > 5.12 µM
D-336MG; d-336mg
  IC50: 1.67 µM and 3.43 µM
NB12; nb12
  IC50: 1.55 µM and > 5.12 µM
NB14
  IC50: > 5.12 µM
HLE; hle
  IC50: > 5.12 µM
NCI-H1581; nci-h1581
  IC50: > 5.12 µM
HCC1187; Homo sapiens, HCC1187
  IC50: > 5.12 µM
HCC1187; hcc1187
  IC50: > 5.12 µM
NCI-H1838; nci-h1838
  IC50: > 5.12 µM
TGBC1TKB; tgbc1tkb
  IC50: > 5.12 µM
AN3-CA
  IC50: 3.59 µM
NCI-H226; Homo sapiens, NCI-H226
  IC50: > 5.12 µM
NCI-H226; nci-h226
  IC50: > 5.12 µM
YKG-1; Homo sapiens, YKG-1
  IC50: > 5.12 µM
YKG-1; ykg-1
  IC50: > 5.12 µM
MeWo; mewo
  IC50: > 5.12 µM and 3.17 µM
OCI-AML2
  IC50: > 5.12 µM
NCI-H1299; nci-h1299
  IC50: 3.67 µM and > 5.12 µM
Calu-6; calu-6
  IC50: > 5.12 µM
NCI-H1437; nci-h1437
  IC50: > 5.12 µM
OAW-42; oaw-42
  IC50: > 5.12 µM
P30-OHK
  IC50: 1.07 µM
KNS-81-FD; kns-81-fd
  IC50: > 5.12 µM
EW-16; ew-16
  IC50: > 5.12 µM
MDA-MB-157; mda-mb-157
  IC50: > 5.12 µM
ETK-1; etk-1
  IC50: > 5.12 µM
SJSA-1; Homo sapiens, SJSA-1
  IC50: > 5.12 µM
SJSA-1; sjsa-1
  IC50: > 5.12 µM
SNB-75; Homo sapiens, SNB-75
  IC50: 1.67 µM
SNB-75; snb-75
  IC50: 3.15 µM
SNU-5
  IC50: > 5.12 µM
LU-99A; lu-99a
  IC50: > 5.12 µM
CHP-212; chp-212
  IC50: > 5.12 µM
MC116
  IC50: 1.46 µM
KYSE-510; Homo sapiens, KYSE-510
  IC50: > 5.12 µM
KYSE-510; kyse-510
  IC50: > 5.12 µM
BFTC-909; bftc-909
  IC50: > 5.12 µM
MKN-1; mkn-1
  IC50: > 5.12 µM
KYSE-70 cell line; kyse-70
  IC50: > 5.12 µM
IGROV-1; Homo sapiens, IGROV-1
  IC50: 1.97 µM
IGROV-1; igrov-1
  IC50: 2.55 µM
no-10
  IC50: > 5.12 µM
no-10; Homo sapiens
  IC50: > 5.12 µM
BT-474; bt-474
  IC50: > 5.12 µM
U2OS; u-2-os
  IC50: > 5.12 µM and 4.6 µM
SHP77; shp-77
  IC50: > 5.12 µM
MEL-HO; mel-ho
  IC50: 1.24 µM and > 5.12 µM
LB771-HNC; Homo sapiens, LB771-HNC
  IC50: > 5.12 µM
LB771-HNC; lb771-hnc
  IC50: > 5.12 µM
OVCAR-3; ovcar-3
  IC50: 0.679 µM and 3.92 µM
Ramos-2G6-4C10
  IC50: > 5.12 µM
KGN; kgn
  IC50: 4.32 µM and > 5.12 µM
C32; c32
  IC50: > 5.12 µM
SW948; sw948
  IC50: > 5.12 µM
DB
  IC50: > 5.12 µM
ACN; Homo sapiens, ACN
  IC50: > 5.12 µM
ACN; acn
  IC50: > 5.12 µM

## O=c1cc(-c2cccc3c2Sc2ccccc2S3)oc(N2CCOCC2)c1 [KU-55933]
SNU-387; Homo sapiens, SNU-387
  IC50: > 10 µM
GB-1; Homo sapiens, GB-1
  IC50: > 10 µM
EFO-27; Homo sapiens, EFO-27
  IC50: > 10 µM
EFO-21; Homo sapiens, EFO-21
  IC50: > 10 µM
D-336MG; Homo sapiens, D-336MG
  IC50: > 10 µM
NB12; Homo sapiens, NB12
  IC50: > 10 µM
NB14
  IC50: > 10 µM
HLE; Homo sapiens, HLE
  IC50: > 10 µM
NCI-H1581; Homo sapiens, NCI-H1581
  IC50: > 10 µM
HCC1187; Homo sapiens, HCC1187
  IC50: > 10 µM
NCI-H1838; Homo sapiens, NCI-H1838
  IC50: > 10 µM
TGBC1TKB; Homo sapiens, TGBC1TKB
  IC50: > 10 µM
AN3-CA
  IC50: > 10 µM
NCI-H226; Homo sapiens, NCI-H226
  IC50: > 10 µM
YKG-1; Homo sapiens, YKG-1
  IC50: > 10 µM
MeWo; Homo sapiens, MeWo
  IC50: > 10 µM
OCI-AML2
  IC50: > 10 µM
NCI-H1299; Homo sapiens, NCI-H1299
  IC50: > 10 µM
Calu-6; Homo sapiens, Calu-6
  IC50: > 10 µM
NCI-H1437; Homo sapiens, NCI-H1437
  IC50: 9.81 µM
OAW-42; Homo sapiens, OAW-42
  IC50: > 10 µM
P30-OHK
  IC50: > 10 µM
KNS-81-FD; Homo sapiens, KNS-81-FD
  IC50: > 10 µM
EW-16; Homo sapiens, EW-16
  IC50: > 10 µM
MDA-MB-157; Homo sapiens, MDA-MB-157
  IC50: > 10 µM
ETK-1; Homo sapiens, ETK-1
  IC50: > 10 µM
RXF 393
  IC50: > 10 µM
SJSA-1; Homo sapiens, SJSA-1
  IC50: > 10 µM
SNB-75; Homo sapiens, SNB-75
  IC50: > 10 µM
LU-99A; Homo sapiens, LU-99A
  IC50: > 10 µM
CHP-212; Homo sapiens, CHP-212
  IC50: > 10 µM
MC116
  IC50: > 10 µM
KYSE-510; Homo sapiens, KYSE-510
  IC50: > 10 µM
BFTC-909; Homo sapiens, BFTC-909
  IC50: > 10 µM
MKN-1; Homo sapiens, MKN-1
  IC50: > 10 µM
KYSE-70 cell line; Homo sapiens, KYSE-70
  IC50: > 10 µM
IGROV-1; Homo sapiens, IGROV-1
  IC50: > 10 µM
no-10; Homo sapiens
  IC50: > 10 µM
BT-474; Homo sapiens, BT-474
  IC50: > 10 µM
U2OS; Homo sapiens, U2OS
  IC50: > 10 µM
SHP77; Homo sapiens, SHP77
  IC50: > 10 µM
MEL-HO; Homo sapiens, MEL-HO
  IC50: > 10 µM
LB771-HNC; Homo sapiens, LB771-HNC
  IC50: > 10 µM
OVCAR-3; Homo sapiens, OVCAR-3
  IC50: > 10 µM
Ramos-2G6-4C10
  IC50: > 10 µM
KGN; Homo sapiens, KGN
  IC50: > 10 µM
C32; Homo sapiens, C32
  IC50: > 10 µM
SW948; Homo sapiens, SW948
  IC50: > 10 µM
DB
  IC50: > 10 µM
ACN; Homo sapiens, ACN
  IC50: > 10 µM
